Source: patent US20250017952A1, “ANTIFUNGAL COMPOUND, COMPOSITION AND USES THEREOF” (SASTRA DEEMED UNIVERSITY, priority 2021, published 2025)
“And” between values parts separate entries of the source, which are not always exact repeats. Equal values may be shown once. “Also recorded” adds a separate entry of the source.

Legend:
[1] = tested on: C. albicans biofilm, hyphal and virulence genes; assay: qRTPCR of biofilm, hyphal and virulence genes; format: cell-based, Candida albicans
Protocol: FIG. 8 illustrates the qRTPCR analysis of biofilm, hyphal and virulence genes in C. albicans biofilms treated with Cangrelor using 18srRNA as the housekeeping gene. Briefly, after 24 h incubation, planktonic cells were removed, and biofilm cells were collected, and RNA was extracted for the treated and untreated groups. […] The data was obtained in triplicates and analysis was performed by the 2^−ΔΔCt method.

C. albicans biofilm = assay: Biofilm inhibition, Crystal Violet (CV) assay; format: cell-based, Candida albicans; settings: crystal violet biofilm biomass
Protocol: (§1) FIG. 3 illustrates antifungal and antibiofilm evaluation against C. albicans at varying concentrations: The effect of the Cangrelor on planktonic cells was determined by measuring the OD at 595 nm. A wide range of concentrations ranging from 100 μM-0.47 pM were considered for evaluation. Biofilm inhibitory effects were determined by measuring the biofilm biomass using the Crystal Violet (CV) assay. The dose-response curves were plotted by fitting the inhibition data using a 4-parameter logistic equation. Cangrelor inhibited biofilms at a minimum concentration of 120 pM

[2] = tested on: C. albicans SC5314 biofilm; assay: CLSM analysis of biofilm with COMSTAT quantification; format: cell-based, Candida albicans; settings: for live/dead fluorescence of cells in CLSM: green = live, red = dead
From the text: FIG. 4a illustrates CLSM analyses of biofilm inhibitory effects of Cangrelor against C. albicans SC5314. […] The presence of red fluorescence in fluconazole treatment confirms its fungicidal effect. The COMSTAT analysis was done to quantify the biofilm coverage, average thickness, and biovolume from Z-stacks obtained from at least 5 regions of the glass slides, using a confocal laser scanning microscope (Olympus FLUOVIEW, FV1000) with a 40× objective lens (FIG. 4b).

[3] = tested on: Candida albicans on T24 bladder epithelial cells; assay: Adhesion and invasion of C. albicans in monolayer T24 bladder epithelial cells; format: cell-based
From the text: FIG. 10 illustrates the microscopic images of the monolayer T24 bladder epithelial cells infected with Candida albicans with and without Cangrelor treatment. […] The yeast cells (circled in white) were maintained upon the treatment and thereby couldn't adhere and invade the epithelial cells.

[4] = tested on: Candida albicans SC5314, ATCC90028, clinical isolate BF1; assay: Germ tube / filamentation inhibition, phase contrast; format: cell-based; settings: for germ tube / hyphal morphogenesis, time-dependent: till 6 h, three strains
Protocol: FIG. 6 illustrates the phase contrast images of germ tube inhibition of Candida albicans for the three strains by cangrelor in a time-dependent manner till 6 h. The untreated C. albicans show the hyphal development from the 2nd hour, where the yeast cells adhere, and at the 6 h, the hyphal is elongated and branched.
FIG. 7 illustrates the phase contrast images of filamentation inhibition of Candida albicans by cangrelor after 24 h of inhibition.
A time-dependent mapping of the hyphal development was done until 6 h upon Cangrelor treatment and compared to the untreated control for the three strains of C. albicans, including the standard strains-SC5314 and ATCC90028, and clinical isolate, BF1. […] The morphogenesis switch inhibition is essential as the primary virulence characteristic of C. albicans is hyphal formation. The hyphal form is necessary for biofilm formation and polymicrobial interaction to invade the host cell and overcome the immune response.

[5] = tested on: C. albicans SC5314 biofilm; assay: SEM analysis of biofilm; format: cell-based, Candida albicans
Protocol: FIG. 5 illustrates Cangrelor abolish C. albicans SC5314 biofilm. An overnight culture of C. albicans was grown overnight at 30° C. in YPD liquid media. C. albicans cells (1.5×10^7 cells/ml) were seeded on the glass slides in the presence or absence of the ALS-3 drug-like chemotype, Cangrelor in YPD and incubated at 37° C. for 24 h. […] Statistical significance was determined using the unpaired Student's t test (P<0.0001).

[6] = tested on: C. albicans virulence genes (biofilm, hyphae, drug resistance); assay: RNAseq differential expression analysis; format: cell-based, Candida albicans; settings: treated vs untreated
From the text: A cutoff absolute value of log fold change >1 (2-fold change) was used. Adjusted P value <0.05 (c) Venn diagram illustrating the degree of overlap between various virulence genes (Biofilm Inducing (BI); Hyphal Inducing (HI); and Drug Resistance (DR) in C. albicans under drug (Cangrelor) treated and untreated conditions.
TRY6, FYV5 (Pentland et al., 2018; Murillo et al., 2005; Nett et al., 2009a), drug-resistance genes MAK1 and RPP1 (Nett et al., 2009b; Levitin & Whiteway, 2007a) and upregulation of the genes, GAL and MAF1 that negatively regulates (repressors) the biofilm phenotype in C. albicans (Nobile et al., 2012). […] In Candida albicans, the potential shift from yeast to hypha is a route cause to host invasion and symbiotic relationship with other pathogens, where the data was significant to show downregulation of hyphal-specific genes such as ECE1, RAS, NDT80 (Moyes et al., 2016). […] This observation was very crucial to the inventor's claim that the compound, Cangrelor could potentiate the anti-fungal susceptibility (Moyes et al., 2016; Maglott et al., 2007b; Levitin & Whiteway, 2007b; Chaudhuri et al., 2011; Singh et al., 2011). Taken together, Cangrelor systematically downregulate the virulence features to potentially curb the pathogenesis of C. albicans.

[7] = tested on: C. albicans planktonic cells; assay: Planktonic growth, OD at 595 nm; format: cell-based, Candida albicans; settings: 100 μM-0.47 pM tested
Protocol: as §1

Q: `CSCCNc1nc(SCCC(F)(F)F)nc2c1ncn2[C@@H]1O[C@H](COP(=O)(O)OP(=O)(O)C(Cl)(Cl)P(=O)(O)O)[C@@H](O)[C@H]1O` [Cangrelor] was tested. Which “expression of adhesion and invasion genes” value ([1]; 240 pM, 24 h biofilm cells) did it give?
A: downregulated

Q: What about the ECE1 gene expression ([1]; qRTPCR) of the same molecule?
A: downregulation

Q: What about the ERG11 gene expression ([1]; qRTPCR) of the same molecule?
A: downregulated

Q: What about the PLB1 expression downregulation ([1]; qRTPCR, 2^−ΔΔCt) of the same molecule?
A: ~2 log fold

Q: And the “expression of transcriptional regulators of biofilm and hyphal genes, adhesin and hyphal specific protein” value ([1]; qRTPCR, 18srRNA housekeeping)?
A: downregulated

Q: And the IC50 (C. albicans biofilm; Candida albicans, read-out: BIC50 (50% Biofilm Inhibition Concentration))?
A: 0.12 nM

Q: What about the “concentration at which biofilms were inhibited (minimum / very low concentration)” value (C. albicans biofilm) of the same molecule?
A: 120 pM

Q: And the “biofilm structure in CLSM images” value ([2]; C. albicans SC5314)?
A: no biofilm formation

Q: What about the roughness coefficient ([2]; COMSTAT, control 1.2) of the same molecule?
A: 1.91

Q: What about the diffusion distance ([2]; COMSTAT, control 8.73 μm) of the same molecule?
A: 0.18 μm

Q: And the average biofilm thickness ([2]; COMSTAT, control 28.64 μm)?
A: 0.5 μm

Q: And the biofilm biomass ([2]; COMSTAT, untreated 25.96 μm)?
A: significant reduction

Q: What about the “live/dead fluorescence of cells in CLSM” value [2] of the same molecule?
A: live cells

Q: What about the “adherence and invasion of epithelial cells” value [3] of the same molecule?
A: reducing adherence and invasion

Q: And the “hyphal morphogenesis on epithelial cells” value [3]?
A: inhibited hyphal morphogenesis

Q: What about the “filamentation after 24 h” value ([4]; 24 h) of the same molecule?
A: maintained the yeast form

Q: And the “germ tube / hyphal morphogenesis, time-dependent” value [4]?
A: inhibits the hyphal morphogenesis

Q: What about the “germ tube / hyphal morphogenesis, time-dependent” value ([4]; listed as cangrelor) of the same molecule?
A: did not switch to the hyphal form

Q: What about the “filamentation in SEM” value ([5]; 120 pM vs untreated control) of the same molecule?
A: abolished filamentation

Q: And the “number of cells in SEM” value ([5]; 120 pM, 24 h, YPD, untreated more than 1200 cells)?
A: < 56 cells and < 60 cells

Q: And the “number of biofilm inducing genes downregulated” value [6]?
A: more than 90 genes

Q: And the “growth of C. albicans (planktonic)” value [7]?
A: without affecting growth; also recorded: not inhibited

Q: `OC(Cn1cncn1)(Cn1cncn1)c1ccc(F)cc1F` [fluconazole] was tested. Which “live/dead fluorescence of cells in CLSM” value [2] did it give?
A: dead cells
